Results published in patent publication US20080305186A1, “Method and Composition for the Treatment of Cardiac Hypertrophy” (BOARD OF REGENTS, THE UNIVERSITY OF TEXAS SYSTEM, priority 2007, published 2008).

Tested on: cardiac gene expression
Experiment: Microarray analysis of cardiac gene expression (GeneChip Mouse Genome 430 2.0)
Type: in vivo, mice
Method: Microarray Sample Preparation and Analysis. Animal hearts were rapidly removed, and the atria and right ventricles were cut and immediately plunged into TRIzol Reagent (Life Technologies). Total RNA was isolated following the manufacturer's instructions, purified by phenol-chloroform extraction and then ethanol precipitation, and 20 μg further processed for microarray analysis. Briefly, cDNA synthesis, in vitro transcription, and labeling and fragmentation to produce the oligonucleotide probes were performed as instructed by the GeneChip manufacturer (Affymetrix). The probes were first hybridized to a test array (Affymetrix) and then to the GeneChip Mouse Genome 430 2.0 Array, using the GeneChip Hybridization Oven 640. The chips were washed in a GeneChip Fluidics Station 450 (Affymetrix), and the results were visualized with a GeneChip G7 scanner (Affymetrix). RMA normalization, pairwise comparisons, Student's t test and Benjamini and Hochberg correction were subsequently performed using GeneSifter (VizX Labs, Seattle, Wash.) and Spotfire DecisionSite 8.3 (Spotfire, Inc., Somerville, Mass.).
Effects on Gene Expression Profile. […] One mouse heart was used for each array, and was performed in triplicate, generating a total of 12 arrays. GeneSifter was used to perform RMA normalization, pairwise comparisons of averaged signal intensity values, and Student's t-test with Benjamini and Hochberg correction, and Spotfire was used to perform pairwise comparisons. […] Additionally, genes that were altered between any two N or cardiac hypertrophy samples were removed, as these alterations most likely represented normal variations between mice.

[1] = mouse heart, vs isoproterenol only (CH), CH vs normal 7.4
[2] = mouse heart, vs isoproterenol only (CH), CH vs normal −1.7
[3] = mouse heart, vs isoproterenol only (CH), CH vs normal −1.8
[4] = mouse heart, vs isoproterenol only (CH), CH vs normal −1.9
[5] = mouse heart, vs isoproterenol only (CH), CH vs normal −2.0
[6] = mouse heart, vs isoproterenol only (CH), CH vs normal −2.1
[7] = mouse heart, vs isoproterenol only (CH), CH vs normal −2.4
[8] = mouse heart, vs isoproterenol only (CH), CH vs normal −2.5
[9] = mouse heart, vs isoproterenol only (CH), CH vs normal −2.6
[10] = mouse heart, vs isoproterenol only (CH), CH vs normal −2.7
[11] = mouse heart, vs isoproterenol only (CH), CH vs normal −2.9
[12] = mouse heart, vs isoproterenol only (CH), CH vs normal −3.0
[13] = mouse heart, vs isoproterenol only (CH), CH vs normal −3.2
[14] = mouse heart, vs isoproterenol only (CH), CH vs normal −3.3

SMILES: NC(=O)N1c2ccccc2C=Cc2ccccc21 [carbamazepine]
- FC Membrane-spanning 4-domains, subfamily A, member 6d (Ms4a6d), NM_026835 (mouse heart, vs isoproterenol only (CH), CH vs normal 6.4): −1.6 fold
- FC Proteoglycan 4 (megakaryocyte stimulating factor, articular superficial zone protein) (Prg4), NM_021400 (mouse heart, vs isoproterenol only (CH), CH vs normal 6.8): −1.5 fold
- FC CCAATenhaer binding protein (CEBP), delta (Cebpd), BB831146 [1]: −1.6 fold
- FC Ca(2+)-sensitive chloride channel 2 (Clca2), AF108501 [1]: −2.0 fold
- FC Lysyl oxidase (Lox), M65143 [1]: −2.1 fold
- FC Cytokine inducible SH2-containing protein 3 (Socs3), BB831725 (mouse heart, vs isoproterenol only (CH), CH vs normal 8.2): −2.4 fold
- FC C-type (calcium dependent, carbohydrate recognition domain) lectin, superfamily member 8 (Clecsf8), NM_010819 (mouse heart, vs isoproterenol only (CH), CH vs normal 10.8): −1.7 fold
- FC Lysyl oxidase (Lox), NM_010728 (mouse heart, vs isoproterenol only (CH), CH vs normal 11.1): −2.4 fold
- FC FK506 binding protein 5 (51 kDa) (Fkbp5), BC015260 (mouse heart, vs isoproterenol only (CH), CH vs normal 16.3): −1.6 fold
- FC Lipocalin 2 (Lcn2), X14607 (mouse heart, vs isoproterenol only (CH), CH vs normal 27.7): −1.6 fold
- FC Serine protease inhibitor 2-2 (Spi2-2) (Serpin3n), NM_009252 (mouse heart, vs isoproterenol only (CH), CH vs normal 40.5): −2.3 fold
- FC Metallophosphoesterase domain containing 2 (Mpped2), AK012553 (mouse heart, vs isoproterenol only (CH), CH vs normal −1.5): 1.6 fold
- FC cDNA, BM229539 (mouse heart, vs isoproterenol only (CH), CH vs normal −1.6): 1.6 fold
- FC Cytoplasmic polyadenylation element binding protein 3 (Cpeb3), BB281000 [2]: 1.8 fold
- FC EphrinB3 (Efnb3), BQ175608 [2]: 1.5 fold
- FC Nuclear factor IB (Nfib), BB092799 [2]: 2.0 fold
- FC Preimplantation protein 4 (Prei4), BB550273 [2]: 1.7 fold
- FC Triple futional domain (PTPRF interacting) (Trio), BB794936 [2]: 1.7 fold
- FC EST, BB126796 [3]: 2.2 fold
- FC EST, BB451134 [3]: 2.2 fold
- FC Metastasis suppressor 1 (Mtss1), BB326749 [3]: 1.6 fold
- FC Tetratricopeptide repeat domain (Ttc3), BB833716 [3]: 2.0 fold
- FC EST, BM941198 [4]: 1.7 fold
- FC Jumonji, AT rich interactive domain 1A (Rbp2 like) (Jarid1a), BB376407 [4]: 1.8 fold
- FC Guanine nucleotide binding protein, alpha 12 (Gna12), NM_010302 [5]: 1.6 fold
- FC Zi finger and BTB domain containing 20 (Zbtb20), BB175650 [5]: 1.9 fold
- FC C1q and tumor necrosis factor related protein 4 (C1qtnf4), NM_026161 [6]: 1.5 fold
- FC Cold inducible RNA binding protein (Cirbp), NM_007705 [6]: 2.1 fold
- FC Adrenergic receptor, alpha 1b (Adra1b), NM_007416 (mouse heart, vs isoproterenol only (CH), CH vs normal −2.3): 1.6 fold
- FC DNA segment, Chr 9, ERATO Doi 256, expressed, BG066667 [7]: 1.8 fold
- FC Insulin degrading enzyme (Ide), AK014703 [7]: 1.9 fold
- FC Sno, strawbeny notch homolog 1 (Sno1), BE947961 [7]: 1.6 fold
- FC B-cell translocation gene 2, anti-proliferative (Btg2), BG965405 [8]: 1.8 fold
- FC cDNA, BC026793 [8]: 1.8 fold
- FC Desmoglein 2 (Dsg2), AB072269 [9]: 2.5 fold
- FC Heat shock protein, 84 kDa 1 (Hsp90ab1), BI154147 [9]: 3.7 fold
- FC Myocyte enhaer factor 2C (Mef2c), AI595932 [9]: 1.9 fold
- FC Restin-like 2 (Rsnl2), AK018895 [9]: 1.9 fold
- FC Jumonji domain containing 3 (Jmjd3), AW763746 [10]: 1.9 fold
- FC cDNA (similar to integrin beta 1 binding protein 3), AK009897 [10]: 2.7 fold
- FC Karyopherin (importin) beta 1 (Kpnb1), AW544889 (mouse heart, vs isoproterenol only (CH), CH vs normal −2.8): 2.3 fold
- FC PPAR gamma coactivator-1beta protein (Ppargc1b), NM_133249 [11]: 2.0 fold
- FC SET and MYND domain containing 1 (Smyd1), NM_009762 [11]: 1.7 fold
- FC Dual specificity phosphatase 8 (Dusp8), NM_008748 [12]: 1.8 fold
- FC GATA binding protein 4 (Gata4), NM_008092 [12]: 2.1 fold
- FC Actin, beta, cytoplasmic (Actb), AW537707 [13]: 1.7 fold
- FC Methionine sulfoxide reductase B3 (Msrb3), BB277041 [13]: 1.7 fold
- FC Thymoma viral proto-oogene 1 (Akt1), M94335 [14]: 1.6 fold
- FC cDNA, BB283973 [14]: 1.9 fold
- FC cDNA, BB534971 (mouse heart, vs isoproterenol only (CH), CH vs normal −3.5): 1.6 fold
- FC cDNA, BB026304 (mouse heart, vs isoproterenol only (CH), CH vs normal −3.8): 2.5 fold
- FC Kinesin-like protein (Kif1b), D17577 (mouse heart, vs isoproterenol only (CH), CH vs normal −3.9): 1.6 fold
- FC Kv channel-interacting protein 2a (Kcnip2), AF439339 (mouse heart, vs isoproterenol only (CH), CH vs normal −4.4): 2.6 fold
- FC Potassium voltage-gated channel, Isk-related subfamily, member 1 (Kcne1), NM_008424 (mouse heart, vs isoproterenol only (CH), CH vs normal −4.6): 1.5 fold
- FC Tumor rejection antigen gp96 (Tra1); heat shock protein 90 kDa beta (Grp94), member 1 (Hsp90b1), BE995678 (mouse heart, vs isoproterenol only (CH), CH vs normal −9.4): 2.7 fold
- FC Cadherin 13 (Cdh13), AK016527 (mouse heart, vs isoproterenol only (CH), CH vs normal −10.0): 5.9 fold
- number of the 472 cardiac hypertrophy-specific Combo-altered genes also altered by the drug alone (statistical parameters lifted (average fold-changes irrespective of statistical measures)): 98
- G7e protein gene, fold-change (the only gene significantly altered): −2.2 fold
